Measurements reported in ChEMBL document CHEMBL1129819, “Polysubstituted 2H-pyran-2-ones: A new class of hepatoprotective agents” (1997).

Legend:
Format in all cases: functional
[1] = species: Rattus norvegicus; assay: Percent protection against thioacetamide-induced toxicity in rats using acid phosphatase(ACP); design: concentration or dose not given beside the values
[2] = tested on: Rattus norvegicus; assay: Percent protection against thioacetamide-induced toxicity in rats using alkaline phosphatase (ALP) when peroral administration of compound 6 mg/kg for 7 days; details: route oral
[3] = tested on: Rattus norvegicus; assay: Percent protection against thioacetamide-induced toxicity in rats using glutamate dehydrogenase (GIDH) when peroral administration of compound 6 mg/kg for 7 days; details: route oral
[4] = tested on: Rattus norvegicus; assay: Percent protection against thioacetamide-induced toxicity in rats using glutamate oxaloacetate transaminase (GOT) when peroral administration of compound 6 mg/kg for 7 days; details: route oral
[5] = tested on: Rattus norvegicus; assay: Percent protection against thioacetamide-induced toxicity in rats using glutamate pyruvate transaminase (GPT) when peroral administration of compound 6 mg/kg for 7 days; details: route oral
[6] = tested on: Rattus norvegicus; assay: Percent protection in paracetamol-induced model using glutamate pyruvate transaminase(GPT) when peroral administration of compound 6 mg/kg for 7 days; details: route oral
[7] = tested on: Rattus norvegicus; assay: Percent protection in carbon tetrachloride-induced model using alkaline phosphatase(ALP) when peroral administration of compound 6 mg/kg for 7 days; details: route oral
[8] = tested on: Rattus norvegicus; assay: Percent protection in carbon tetrachloride-induced model using glutamate dehydrogenase(GIDH) when peroral administration of compound 6 mg/kg for 7 days; details: route oral
[9] = tested on: Rattus norvegicus; assay: Percent protection in carbon tetrachloride-induced model using glutamate oxaloacetate transaminase(GOT) when peroral administration of compound 6 mg/kg for 7 days; details: route oral
[10] = tested on: Rattus norvegicus; assay: Percent protection in carbon tetrachloride-induced model using glutamate pyruvate transaminase(GPT) when peroral administration of compound 6 mg/kg for 7 days; details: route oral
[11] = tested on: Rattus norvegicus; assay: Percent protection in galactosamine-induced model using acid phosphatase(ACP)when peroral administration of compound 6 mg/kg for 7 days; details: route oral
[12] = tested on: Rattus norvegicus; assay: Percent protection in galactosamine-induced model using alkaline phosphatase(ALP) when peroral administration of compound 6 mg/kg for 7 days; details: route oral
[13] = tested on: Rattus norvegicus; assay: Percent protection in galactosamine-induced model using glutamate dehydrogenase(GIDH) when peroral administration of compound 6 mg/kg for 7 days; details: route oral
[14] = tested on: Rattus norvegicus; assay: Percent protection in galactosamine-induced model using glutamate oxaloacetate transaminase(GOT) when peroral administration of compound 6 mg/kg for 7 days; details: route oral
[15] = tested on: Rattus norvegicus; assay: Percent protection in paracetamol-induced model using acid phosphatase(ACP) when peroral administration of compound 6 mg/kg for 7 days; details: route oral
[16] = tested on: Rattus norvegicus; assay: Percent protection in paracetamol-induced model using alkaline phosphatase(ALP) at peroral dose of 6 mg/kg for 7 days; details: route oral
[17] = tested on: Rattus norvegicus; assay: Percent protection in paracetamol-induced model using glutamate dehydrogenase(GIDH) when peroral administration of compound 6 mg/kg for 7 days; details: route oral
[18] = tested on: Rattus norvegicus; assay: Percent protection in paracetamol-induced model using glutamate oxaloacetate transaminase(GOT) when peroral administration of compound 6 mg/kg for 7 days; details: route oral
[19] = tested on: Rattus norvegicus; assay: Percent protection in alcohol-induced model using acid phosphatase(ACP) at peroral dose of 6 mg/kg for 7 days; details: route oral
[20] = tested on: Rattus norvegicus; assay: Percent protection in carbon tetrachloride-induced model using acid phosphatase(ACP) when peroral administration of compound 6 mg/kg for 7 days; details: route oral
[21] = tested on: Rattus norvegicus; assay: Percent protection in alcohol-induced model using acid phosphatase(ACP) when peroral administration of compound 12 mg/kg for 7 days; details: route oral
[22] = tested on: Rattus norvegicus; assay: Percent protection in alcohol-induced model using alkaline phosphatase(ALP) when peroral administration of compound 12 mg/kg for 7 days; details: route oral
[23] = tested on: Rattus norvegicus; assay: Percent protection in alcohol-induced model using alkaline phosphatase(ALP) when peroral administration of compound 6 mg/kg for 7 days; details: route oral
[24] = tested on: Rattus norvegicus; assay: Percent protection in alcohol-induced model using glutamate dehydrogenase(GIDH) when peroral administration of compound 12 mg/kg for 7 days; details: route oral
[25] = tested on: Rattus norvegicus; assay: Percent protection in alcohol-induced model using glutamate dehydrogenase(GIDH) when peroral administration of compound 6 mg/kg for 7 days; details: route oral
[26] = tested on: Rattus norvegicus; assay: Percent protection in alcohol-induced model using glutamate oxaloacetate transaminase(GOT) when peroral administration of compound 12 mg/kg for 7 days; details: route oral
[27] = tested on: Rattus norvegicus; assay: Percent protection in alcohol-induced model using glutamate oxaloacetate transaminase(GOT) when peroral administration of compound 6 mg/kg for 7 days; details: route oral
[28] = tested on: Rattus norvegicus; assay: Percent protection in alcohol-induced model using glutamate pyruvate transaminase(GPT) at peroral dose of 12 mg/kg for 7 days; details: route oral
[29] = tested on: Rattus norvegicus; assay: Percent protection in alcohol-induced model using glutamate pyruvate transaminase(GPT) when peroral administration of compound 6 mg/kg for 7 days; details: route oral
[30] = tested on: Rattus norvegicus; assay: Percent protection in galactosamine-induced model using glutamate pyruvate transaminase(GPT) when peroral administration of compound 6 mg/kg for 7 days; details: route oral
[31] = tested on: Rattus norvegicus; assay: Percent protection against thioacetamide-induced toxicity in rats using acid phosphatase(ACP) at peroral dose of 6 mg/kg for 7 days of compound; details: route oral

## CCOC(=O)c1c(SC)c(C#N)c(-c2ccc(Cl)cc2)oc1=O
[1]
  Protection: 30%
[2]
  Protection: 0%
[3]
  Protection: 16%
[4]
  Protection: 14%
[5]
  Protection: 19%

## CSc1cc(-c2ccc(Cl)cc2)oc(=O)c1C#N
[6]
  Protection: 81%
[7]
  Protection: 57%
[8]
  Protection: 58%
[9]
  Protection: 59%
[10]
  Protection: 67%
[11]
  Protection: 66%
[12]
  Protection: 68%
[13]
  Protection: 57%
[14]
  Protection: 86%
[15]
  Protection: 90%
[16]
  Protection: 73%
[17]
  Protection: 54%
[18]
  Protection: 73%
[1]
  Protection: 59%
[2]
  Protection: 65%
[3]
  Protection: 51%
[4]
  Protection: 68%
[5]
  Protection: 69%
[19]
  Protection: 53%
[20]
  Protection: 70%
[21]
  Protection: 74%
[22]
  Protection: 56%
[23]
  Protection: 24%
[24]
  Protection: 62%
[25]
  Protection: 40%
[26]
  Protection: 58%
[27]
  Protection: 34%
[28]
  Protection: 69%
[29]
  Protection: 48%
[30]
  Protection: 76%

## CSc1cc(-c2ccncc2)oc(=O)c1Br
[1]
  Protection: 53%
[2]
  Protection: 12%
[3]
  Protection: 16%
[4]
  Protection: 48%
[5]
  Protection: 0%

## CSc1cc(-c2ccc(F)cc2)oc(=O)c1Br
[31]
  Protection: 49%
[2]
  Protection: 43%
[3]
  Protection: 0%
[4]
  Protection: 0%
[5]
  Protection: 0%

## CSc1cc(-c2ccc(Cl)cc2)oc(=O)c1C(N)=O
[1]
  Protection: 10%
[2]
  Protection: 17%
[3]
  Protection: 0%
[4]
  Protection: 16%
[5]
  Protection: 15%

## CSc1cc(-c2cccs2)oc(=O)c1C#N
[1]
  Protection: 10%
[2]
  Protection: 33%
[3]
  Protection: 100%
[4]
  Protection: 37%
[5]
  Protection: 74%

## CSc1cc(-c2ccc(Cl)cc2Cl)oc(=O)c1C#N
[1]
  Protection: 61%
[2]
  Protection: 33%
[3]
  Protection: 65%
[4]
  Protection: 37%
[5]
  Protection: 45%

## CSc1cc(-c2ccc(Br)cc2)oc(=O)c1C#N
[1]
  Protection: 38%
[2]
  Protection: 56%
[3]
  Protection: 40%
[4]
  Protection: 20%
[5]
  Protection: 10%

## CSc1cc(-c2cccs2)oc(=O)c1Br
[1]
  Protection: 25%
[2]
  Protection: 37%
[3]
  Protection: 4%
[4]
  Protection: 50%
[5]
  Protection: 55%

## CSc1cc(-c2ccc(F)cc2)oc(=O)c1
[1]
  Protection: 46%
[2]
  Protection: 30%
[3]
  Protection: 15%
[4]
  Protection: 59%
[5]
  Protection: 57%

## CSc1cc(-c2ccc(Cl)cc2)oc(=O)c1Br
[1]
  Protection: 48%
[2]
  Protection: 100%
[3]
  Protection: 51%
[4]
  Protection: 70%
[5]
  Protection: 80%

## CSc1cc(-c2ccc(Cl)cc2)oc(=S)c1Cl
[1]
  Protection: 25%
[2]
  Protection: 10%
[3]
  Protection: 12%
[4]
  Protection: 29%
[5]
  Protection: 26%
